Test results from ChEMBL document CHEMBL4184117, “Design, synthesis and anti-malarial activities of synthetic analogs of biselyngbyolide B, a Ca2+ pump inhibitor from marine cyanobacteria” (Bioorg Med Chem Lett, 2018).

How the values were obtained:
HeLa = assay: Growth inhibition of human HeLa cells after 72 hrs by MTT assay; type: cell-based
[1] = target: Sarcoplasmic/endoplasmic reticulum calcium ATPase 1 (Homo sapiens, UniProt O14983); assay: Inhibition of SERCA1a (unknown origin) ATPase activity
Sequence of Sarcoplasmic/endoplasmic reticulum calcium ATPase 1 (O14983 whole entry): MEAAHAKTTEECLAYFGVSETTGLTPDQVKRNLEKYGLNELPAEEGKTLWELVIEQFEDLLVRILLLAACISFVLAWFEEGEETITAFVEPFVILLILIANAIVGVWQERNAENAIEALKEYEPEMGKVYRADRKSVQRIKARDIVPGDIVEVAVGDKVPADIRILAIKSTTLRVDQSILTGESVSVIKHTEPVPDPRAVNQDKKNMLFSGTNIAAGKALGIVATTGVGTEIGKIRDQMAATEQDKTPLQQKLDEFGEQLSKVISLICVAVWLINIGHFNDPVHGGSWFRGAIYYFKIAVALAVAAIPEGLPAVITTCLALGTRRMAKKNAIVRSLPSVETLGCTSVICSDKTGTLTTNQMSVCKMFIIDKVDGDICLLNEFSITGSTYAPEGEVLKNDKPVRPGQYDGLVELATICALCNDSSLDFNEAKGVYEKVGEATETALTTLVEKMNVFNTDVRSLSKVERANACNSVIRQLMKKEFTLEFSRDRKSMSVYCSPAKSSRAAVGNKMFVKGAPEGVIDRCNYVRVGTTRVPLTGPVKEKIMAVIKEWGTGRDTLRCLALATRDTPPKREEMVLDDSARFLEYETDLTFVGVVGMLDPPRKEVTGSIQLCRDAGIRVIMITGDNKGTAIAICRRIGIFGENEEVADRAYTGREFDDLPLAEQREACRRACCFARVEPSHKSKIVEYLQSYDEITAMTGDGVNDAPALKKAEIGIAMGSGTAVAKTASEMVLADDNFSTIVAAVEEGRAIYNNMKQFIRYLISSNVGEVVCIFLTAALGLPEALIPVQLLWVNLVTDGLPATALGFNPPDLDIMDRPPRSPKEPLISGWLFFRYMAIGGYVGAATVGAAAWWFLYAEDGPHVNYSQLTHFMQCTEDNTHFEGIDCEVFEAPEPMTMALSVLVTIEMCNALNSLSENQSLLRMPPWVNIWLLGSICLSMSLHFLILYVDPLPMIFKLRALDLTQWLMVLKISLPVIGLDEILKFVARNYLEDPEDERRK

MRC5 = assay: Growth inhibition of human MRC5 cells after 7 days by MTT assay; type: cell-based; conditions: MRC5, 168 h
Plasmodium falciparum [2] = assay: Antimalarial activity against chloroquine-resistant Plasmodium falciparum K1 infected in human type A+ erythrocytes assessed as growth inhibition after 72 hrs by LDH assay; type: functional, organism-based; conditions: K1, 72 h
Plasmodium falciparum [3] = assay: Antimalarial activity against chloroquine-sensitive Plasmodium falciparum FCR3 infected in human type A+ erythrocytes assessed as growth inhibition after 72 hrs by LDH assay; type: functional, organism-based; conditions: FCR3, 72 h
Plasmodium falciparum [4] = assay: Antimalarial activity against Plasmodium falciparum 3D7; type: functional, organism-based
Plasmodium falciparum [5] = assay: Antimalarial activity against Plasmodium falciparum FcB1; type: functional, organism-based; conditions: FcB1/Columbia

SMILES | IC50 (HeLa) [µM] | Ki [1] [µM] | IC50 (MRC5) [µM] | IC50 (Plasmodium falciparum [2]) [µM] | IC50 (Plasmodium falciparum [3]) [µM] | IC50 (Plasmodium falciparum [4]) [µM] | IC50 (Plasmodium falciparum [5]) [µM]
C/C=C/C/C(C)=C\[C@H]1C/C=C/C=C/C[C@H](C)/C=C(\C)[C@@H](OC)C/C=C/[C@@H](O)CC(=O)O1 | 0.0028 | 0.017 | 0.23 | 24 | 23.5 | – | –
CC(=O)C1=C(O)[C@@H]2[C@H]3c4c[nH]c5cccc(c45)C[C@H]3C(C)(C)N2C1=O [CYCLOPIAZONIC ACID] | – | 1.8 | – | – | – | 8.8 | 4.9
CO[C@H]1C/C=C/[C@@H](O)CC(=O)O[C@@H](/C=C(/C)CNC(C)=O)C/C=C/C=C/C[C@H](C)/C=C/1C | 4.9 | – | 3 | 19 | 14 | – | –
C/C=C(/C)C(=O)O[C@H]1C(C)=C2[C@H]([C@@H]1OC(=O)CCCCCCC)[C@@](C)(OC(C)=O)C[C@H](OC(=O)CCC)[C@@]1(O)[C@H]2OC(=O)[C@@]1(C)O [THAPSIGARGIN] | – | 0.0001 | – | – | – | – | –
C/C=C/C/C(C)=C\[C@H]1C/C=C/C=C/C[C@H](C)/C=C(\C)[C@@H](OC)C/C=C/[C@@H](O[C@@H]2O[C@H](CO)[C@@H](O)[C@H](OC)[C@H]2O)CC(=O)O1 | 2.5 | 0.019 | 0.4 | 3.4 | 4.4 | – | –
CCNC(=O)/C(C)=C\[C@H]1C/C=C/C=C/C[C@H](C)/C=C(\C)[C@@H](OC)C/C=C/[C@@H](O)CC(=O)O1 | 9.2 | – | 2.9 | 16 | 17 | – | –
CO[C@H]1C/C=C/[C@@H](O)CC(=O)O[C@@H](/C=C(/C)CO)C/C=C/C=C/C[C@H](C)/C=C/1C | > 30 | – | 19 | > 31 | 24 | – | –
